Experimental data reported in ChEMBL document CHEMBL5649169 (ChemMedChem, 2018).

Columns and labels:
[1] = biological target: Coiled-coil domain-containing protein 22 (Homo sapiens) (UniProt O60826); also: assay method not described here
[2] = biological target: 26S proteasome non-ATPase regulatory subunit 1 (Homo sapiens) (UniProt Q99460); also: assay method not described here
[3] = biological target: cAMP-dependent protein kinase catalytic subunit gamma (Homo sapiens) (UniProt P22612); also: assay method not described here
[4] = biological target: Small ribosomal subunit protein eS10 (Homo sapiens) (UniProt P46783); also: assay method not described here
[5] = biological target: Proto-oncogene tyrosine-protein kinase Src (Homo sapiens) (UniProt P12931); also: assay method not described here
[6] = biological target: Protein SDA1 homolog (Homo sapiens) (UniProt Q9NVU7); also: assay method not described here
Homo sapiens [7] = organism: Homo sapiens; also: assay method not described here
[8] = biological target: Aminopeptidase B (Homo sapiens) (UniProt Q9H4A4); also: assay method not described here
[9] = biological target: Carboxymethylenebutenolidase homolog (Homo sapiens) (UniProt Q96DG6); also: assay method not described here
[10] = biological target: Non-selective voltage-gated ion channel VDAC3 (Homo sapiens) (UniProt Q9Y277); also: assay method not described here
[11] = biological target: Vesicle-associated membrane protein 8 (Homo sapiens) (UniProt Q9BV40); also: assay method not described here
[12] = biological target: Glia maturation factor gamma (Homo sapiens) (UniProt O60234); also: assay method not described here
[13] = biological target: Membrane-bound acylglycerophosphatidylinositol O-acyltransferase MBOAT7 (Homo sapiens) (UniProt Q96N66); also: assay method not described here
[14] = biological target: Thioredoxin-dependent peroxide reductase, mitochondrial (Homo sapiens) (UniProt P30048); also: assay method not described here
[15] = biological target: Small ribosomal subunit protein uS12 (Homo sapiens) (UniProt P62266); also: assay method not described here
[16] = biological target: Serine/threonine-protein kinase Chk1 (Homo sapiens) (UniProt O14757); also: assay method not described here
[17] = biological target: POTE ankyrin domain family member E (Homo sapiens) (UniProt Q6S8J3); also: assay method not described here
[18] = biological target: Thioredoxin-related transmembrane protein 1 (Homo sapiens) (UniProt Q9H3N1); also: assay method not described here
[19] = biological target: Glutathione reductase, mitochondrial (Homo sapiens) (UniProt P00390); also: assay method not described here
[20] = biological target: Gamma-tubulin complex component 3 (Homo sapiens) (UniProt Q96CW5); also: assay method not described here
[21] = biological target: Transferrin receptor protein 1 (Homo sapiens) (UniProt P02786); also: assay method not described here
[22] = biological target: Testis-expressed protein 264 (Homo sapiens) (UniProt Q9Y6I9); also: assay method not described here
[23] = biological target: Mitochondrial Rho GTPase 2 (Homo sapiens) (UniProt Q8IXI1); also: assay method not described here
[24] = biological target: Cytochrome c oxidase subunit NDUFA4 (Homo sapiens) (UniProt O00483); also: assay method not described here
Ephrin type-B receptor 4 = Ephrin type-B receptor 4 (Homo sapiens, UniProt P54760); format: cell-based, HEK293T
[25] = biological target: Tyrosine-protein kinase FRK (Homo sapiens) (UniProt P42685); also: assay method not described here
[26] = biological target: Microtubule cross-linking factor 3 (Homo sapiens) (UniProt Q5TF21); also: assay method not described here
[27] = biological target: Protein transport protein Sec23A (Homo sapiens) (UniProt Q15436); also: assay method not described here
[28] = biological target: Dolichyl pyrophosphate Glc1Man9GlcNAc2 alpha-1,3-glucosyltransferase (Homo sapiens) (UniProt Q9BVK2); also: assay method not described here
[29] = biological target: Tubulin alpha-1C chain (Homo sapiens) (UniProt Q9BQE3); also: assay method not described here
[30] = biological target: Acidic fibroblast growth factor intracellular-binding protein (Homo sapiens) (UniProt O43427); also: assay method not described here
[31] = biological target: NADH dehydrogenase [ubiquinone] iron-sulfur protein 3, mitochondrial (Homo sapiens) (UniProt O75489); also: assay method not described here
[32] = biological target: Large ribosomal subunit protein uL30 (Homo sapiens) (UniProt P18124); also: assay method not described here
[33] = biological target: Endoplasmic reticulum junction formation protein lunapark (Homo sapiens) (UniProt Q9C0E8); also: assay method not described here
[34] = biological target: Calmodulin-1 (Homo sapiens) (UniProt P0DP23); also: assay method not described here
[35] = biological target: Chitobiosyldiphosphodolichol beta-mannosyltransferase (Homo sapiens) (UniProt Q9BT22); also: assay method not described here
Homo sapiens [36] = organism: Homo sapiens; remark: listed apart in the source; also: assay method not described here
[37] = biological target: Heterogeneous nuclear ribonucleoprotein A0 (Homo sapiens) (UniProt Q13151); also: assay method not described here
[38] = biological target: Mitogen-activated protein kinase kinase kinase kinase 5 (Homo sapiens) (UniProt Q9Y4K4); also: assay method not described here
[39] = biological target: Nucleolar protein 56 (Homo sapiens) (UniProt O00567); also: assay method not described here
[40] = biological target: Small ribosomal subunit protein eS27 (Homo sapiens) (UniProt P42677); also: assay method not described here
[41] = biological target: Glucose-6-phosphate isomerase (Homo sapiens) (UniProt P06744); also: assay method not described here
[42] = biological target: Discoidin domain-containing receptor 2 (Homo sapiens) (UniProt Q16832); also: assay method not described here
[43] = biological target: Succinate--CoA ligase [ADP-forming] subunit beta, mitochondrial (Homo sapiens) (UniProt Q9P2R7); also: assay method not described here
[44] = biological target: Poly(rC)-binding protein 1 (Homo sapiens) (UniProt Q15365); also: assay method not described here
[45] = biological target: ATP synthase F(1) complex subunit beta, mitochondrial (Homo sapiens) (UniProt P06576); also: assay method not described here

Discoidin domain-containing receptor 2 (Homo sapiens), sequence (Q16832 whole entry, the tested form may be a part): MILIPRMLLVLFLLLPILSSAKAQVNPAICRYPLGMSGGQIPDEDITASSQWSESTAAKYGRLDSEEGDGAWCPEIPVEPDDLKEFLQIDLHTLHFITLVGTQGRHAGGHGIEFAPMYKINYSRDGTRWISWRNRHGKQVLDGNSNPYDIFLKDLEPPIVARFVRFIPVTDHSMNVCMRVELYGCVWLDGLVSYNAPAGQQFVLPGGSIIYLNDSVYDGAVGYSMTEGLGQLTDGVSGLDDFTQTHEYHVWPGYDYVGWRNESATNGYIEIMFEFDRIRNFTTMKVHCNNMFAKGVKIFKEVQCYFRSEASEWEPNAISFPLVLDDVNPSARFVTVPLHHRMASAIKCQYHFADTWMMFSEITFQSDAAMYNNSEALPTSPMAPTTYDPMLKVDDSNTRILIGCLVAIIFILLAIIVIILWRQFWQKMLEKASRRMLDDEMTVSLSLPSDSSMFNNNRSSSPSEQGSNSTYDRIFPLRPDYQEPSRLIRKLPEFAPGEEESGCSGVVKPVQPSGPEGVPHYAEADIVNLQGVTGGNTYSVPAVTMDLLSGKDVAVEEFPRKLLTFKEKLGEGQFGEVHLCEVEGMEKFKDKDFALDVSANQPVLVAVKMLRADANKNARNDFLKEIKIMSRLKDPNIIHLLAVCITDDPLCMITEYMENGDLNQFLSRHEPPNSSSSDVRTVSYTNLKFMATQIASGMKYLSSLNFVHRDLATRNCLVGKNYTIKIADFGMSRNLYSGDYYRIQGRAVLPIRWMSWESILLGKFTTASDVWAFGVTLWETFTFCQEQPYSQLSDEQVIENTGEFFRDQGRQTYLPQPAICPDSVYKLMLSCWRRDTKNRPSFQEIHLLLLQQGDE
Endoplasmic reticulum junction formation protein lunapark (Homo sapiens), sequence (Q9C0E8 whole entry): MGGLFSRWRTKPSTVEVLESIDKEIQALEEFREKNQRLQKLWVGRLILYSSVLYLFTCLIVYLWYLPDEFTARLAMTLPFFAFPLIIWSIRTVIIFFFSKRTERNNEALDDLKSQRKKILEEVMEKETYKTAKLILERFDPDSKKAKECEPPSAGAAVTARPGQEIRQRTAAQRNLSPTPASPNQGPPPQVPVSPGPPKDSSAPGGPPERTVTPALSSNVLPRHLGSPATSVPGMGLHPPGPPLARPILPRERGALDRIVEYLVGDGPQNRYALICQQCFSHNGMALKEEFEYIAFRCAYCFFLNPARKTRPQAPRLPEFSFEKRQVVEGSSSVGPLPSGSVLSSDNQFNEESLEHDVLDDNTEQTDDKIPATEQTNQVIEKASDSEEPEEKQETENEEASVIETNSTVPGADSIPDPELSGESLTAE
26S proteasome non-ATPase regulatory subunit 1 (Homo sapiens), sequence (Q99460 whole entry): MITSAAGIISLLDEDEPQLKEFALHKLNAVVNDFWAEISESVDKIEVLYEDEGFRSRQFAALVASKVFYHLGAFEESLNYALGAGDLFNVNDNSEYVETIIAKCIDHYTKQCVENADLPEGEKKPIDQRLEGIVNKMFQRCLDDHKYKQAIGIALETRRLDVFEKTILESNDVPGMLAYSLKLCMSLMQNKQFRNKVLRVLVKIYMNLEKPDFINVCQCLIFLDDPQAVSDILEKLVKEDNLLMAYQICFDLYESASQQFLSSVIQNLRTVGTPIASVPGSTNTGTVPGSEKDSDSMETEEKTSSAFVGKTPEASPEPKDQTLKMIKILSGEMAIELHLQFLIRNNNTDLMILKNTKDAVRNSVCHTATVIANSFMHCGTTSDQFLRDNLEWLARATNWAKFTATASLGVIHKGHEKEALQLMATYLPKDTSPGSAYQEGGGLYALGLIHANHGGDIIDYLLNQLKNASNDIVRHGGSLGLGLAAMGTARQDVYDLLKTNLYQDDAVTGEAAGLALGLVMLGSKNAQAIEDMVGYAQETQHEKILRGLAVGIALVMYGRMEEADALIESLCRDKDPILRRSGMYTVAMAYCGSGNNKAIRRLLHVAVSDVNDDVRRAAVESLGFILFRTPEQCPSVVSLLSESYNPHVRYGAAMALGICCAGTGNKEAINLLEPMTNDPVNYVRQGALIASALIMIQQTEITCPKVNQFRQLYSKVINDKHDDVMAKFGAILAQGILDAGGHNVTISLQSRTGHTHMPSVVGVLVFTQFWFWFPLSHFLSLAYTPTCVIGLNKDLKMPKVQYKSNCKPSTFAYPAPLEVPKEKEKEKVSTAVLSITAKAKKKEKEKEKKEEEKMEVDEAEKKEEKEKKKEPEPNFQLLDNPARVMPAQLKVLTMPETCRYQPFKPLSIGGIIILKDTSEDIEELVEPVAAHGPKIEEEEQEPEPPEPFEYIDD
Chitobiosyldiphosphodolichol beta-mannosyltransferase (Homo sapiens), sequence (Q9BT22 whole entry): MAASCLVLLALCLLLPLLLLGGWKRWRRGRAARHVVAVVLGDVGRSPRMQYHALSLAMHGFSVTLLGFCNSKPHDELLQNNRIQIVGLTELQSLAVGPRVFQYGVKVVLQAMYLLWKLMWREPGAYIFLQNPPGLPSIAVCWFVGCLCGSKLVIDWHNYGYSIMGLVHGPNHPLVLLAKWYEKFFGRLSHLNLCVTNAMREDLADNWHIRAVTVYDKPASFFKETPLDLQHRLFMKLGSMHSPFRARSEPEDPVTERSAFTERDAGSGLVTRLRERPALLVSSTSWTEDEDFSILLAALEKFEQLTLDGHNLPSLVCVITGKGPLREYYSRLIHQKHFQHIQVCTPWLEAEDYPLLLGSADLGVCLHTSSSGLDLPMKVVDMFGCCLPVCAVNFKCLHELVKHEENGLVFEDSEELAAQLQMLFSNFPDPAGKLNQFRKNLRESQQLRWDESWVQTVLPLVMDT
Heterogeneous nuclear ribonucleoprotein A0 (Homo sapiens), sequence (Q13151 whole entry): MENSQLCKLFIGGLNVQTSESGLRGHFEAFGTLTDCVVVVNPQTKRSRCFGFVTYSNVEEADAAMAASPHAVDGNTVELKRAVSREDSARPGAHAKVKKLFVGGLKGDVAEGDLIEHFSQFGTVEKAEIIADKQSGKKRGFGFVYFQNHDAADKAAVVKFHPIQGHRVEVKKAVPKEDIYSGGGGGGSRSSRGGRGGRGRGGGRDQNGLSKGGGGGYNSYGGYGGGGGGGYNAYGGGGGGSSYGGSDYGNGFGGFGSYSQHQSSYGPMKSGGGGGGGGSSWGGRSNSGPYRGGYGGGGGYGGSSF
Membrane-bound acylglycerophosphatidylinositol O-acyltransferase MBOAT7 (Homo sapiens), sequence (Q96N66 whole entry): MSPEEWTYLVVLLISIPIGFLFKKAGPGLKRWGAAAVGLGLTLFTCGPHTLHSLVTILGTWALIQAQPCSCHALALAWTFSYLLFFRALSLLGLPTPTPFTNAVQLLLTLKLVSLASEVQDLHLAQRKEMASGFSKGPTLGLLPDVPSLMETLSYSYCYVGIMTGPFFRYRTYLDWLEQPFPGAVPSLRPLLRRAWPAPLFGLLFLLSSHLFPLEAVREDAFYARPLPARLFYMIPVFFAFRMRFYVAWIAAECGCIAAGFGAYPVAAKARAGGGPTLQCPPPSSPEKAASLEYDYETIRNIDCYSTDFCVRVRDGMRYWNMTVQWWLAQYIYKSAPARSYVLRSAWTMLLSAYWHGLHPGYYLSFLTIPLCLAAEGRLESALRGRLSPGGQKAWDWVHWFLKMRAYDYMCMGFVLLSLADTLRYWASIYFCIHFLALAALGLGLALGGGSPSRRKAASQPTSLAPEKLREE
Aminopeptidase B (Homo sapiens), sequence (Q9H4A4 whole entry): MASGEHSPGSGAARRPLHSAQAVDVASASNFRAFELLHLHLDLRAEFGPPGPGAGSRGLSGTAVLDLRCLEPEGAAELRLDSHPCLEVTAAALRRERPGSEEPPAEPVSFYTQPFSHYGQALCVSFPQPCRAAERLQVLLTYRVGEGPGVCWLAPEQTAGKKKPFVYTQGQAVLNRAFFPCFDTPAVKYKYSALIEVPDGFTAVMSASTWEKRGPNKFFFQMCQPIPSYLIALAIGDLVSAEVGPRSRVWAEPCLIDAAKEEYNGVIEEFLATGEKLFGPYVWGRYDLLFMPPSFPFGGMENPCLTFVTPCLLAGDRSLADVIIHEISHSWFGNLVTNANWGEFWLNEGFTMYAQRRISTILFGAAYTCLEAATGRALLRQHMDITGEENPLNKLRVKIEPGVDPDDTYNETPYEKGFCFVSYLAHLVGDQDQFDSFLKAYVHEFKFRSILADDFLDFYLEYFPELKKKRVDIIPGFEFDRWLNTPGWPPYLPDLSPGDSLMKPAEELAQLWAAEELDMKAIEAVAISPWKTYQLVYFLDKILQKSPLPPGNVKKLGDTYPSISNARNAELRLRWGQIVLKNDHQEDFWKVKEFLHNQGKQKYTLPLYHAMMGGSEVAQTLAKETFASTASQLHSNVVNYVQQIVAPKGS
Nucleolar protein 56 (Homo sapiens), sequence (O00567 whole entry): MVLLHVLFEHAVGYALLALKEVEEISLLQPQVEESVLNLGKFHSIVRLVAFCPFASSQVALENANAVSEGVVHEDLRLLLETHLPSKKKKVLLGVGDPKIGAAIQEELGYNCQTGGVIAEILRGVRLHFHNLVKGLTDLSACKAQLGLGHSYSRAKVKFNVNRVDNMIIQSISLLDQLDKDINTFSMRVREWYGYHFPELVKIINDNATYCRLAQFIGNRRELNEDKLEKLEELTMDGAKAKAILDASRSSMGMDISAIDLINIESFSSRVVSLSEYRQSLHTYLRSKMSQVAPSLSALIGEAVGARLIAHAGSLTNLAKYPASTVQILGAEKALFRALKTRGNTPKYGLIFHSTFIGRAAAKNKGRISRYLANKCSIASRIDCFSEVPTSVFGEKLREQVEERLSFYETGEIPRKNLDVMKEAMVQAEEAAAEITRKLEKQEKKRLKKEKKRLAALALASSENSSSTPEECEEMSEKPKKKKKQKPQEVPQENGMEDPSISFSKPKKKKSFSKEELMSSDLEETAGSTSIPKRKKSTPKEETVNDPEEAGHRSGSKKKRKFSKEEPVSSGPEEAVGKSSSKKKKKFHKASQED
Cytochrome c oxidase subunit NDUFA4 (Homo sapiens), sequence (O00483 whole entry): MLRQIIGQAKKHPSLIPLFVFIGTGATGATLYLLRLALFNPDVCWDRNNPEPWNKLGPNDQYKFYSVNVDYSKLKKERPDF
Vesicle-associated membrane protein 8 (Homo sapiens), sequence (Q9BV40 whole entry): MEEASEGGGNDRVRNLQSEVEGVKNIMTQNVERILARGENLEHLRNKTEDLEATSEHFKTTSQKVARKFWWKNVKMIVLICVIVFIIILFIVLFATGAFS

**Q.** `Cc1ccc(C(=O)Nc2cccc(C(F)(F)F)c2)cc1Nc1nc(-c2cccnc2)nc2c1cnn2C` was tested. Which ED50 [1] did it give?
**A.** Its ED50 is 2.25 µM.

**Q.** What about the ED50 [2] of the same molecule?
**A.** The ED50 was 0.0138 µM.

**Q.** What about the ED50 [3] of the same molecule?
**A.** Its ED50 is 1.23 µM.

**Q.** What about the ED50 [4] of the same molecule?
**A.** Its ED50 is 0.042 µM.

**Q.** What about the ED50 [5] of the same molecule?
**A.** The ED50 was 3.6 µM.

**Q.** What about the ED50 [6] of the same molecule?
**A.** The ED50 was 0.065 µM.

**Q.** And the ED50 (Homo sapiens [7])?
**A.** The ED50 was 2.84 µM.

**Q.** And the ED50 [8]?
**A.** The ED50 was 0.664 µM.

**Q.** What about the ED50 [9] of the same molecule?
**A.** The ED50 was 0.671 µM.

**Q.** And the ED50 [10]?
**A.** Its ED50 is 0.745 µM.

**Q.** And the ED50 [11]?
**A.** Its ED50 is 1.84 µM.

**Q.** And the ED50 [12]?
**A.** Its ED50 is 70.9 µM.

**Q.** And the ED50 [13]?
**A.** Its ED50 is 3.4 µM.

**Q.** What about the ED50 [14] of the same molecule?
**A.** The ED50 was 0.164 µM.

**Q.** And the ED50 [15]?
**A.** Its ED50 is 0.00873 µM.

**Q.** What about the ED50 [16] of the same molecule?
**A.** Its ED50 is 1.32 µM.

**Q.** And the ED50 [17]?
**A.** Its ED50 is 11.7 µM.

**Q.** And the ED50 [18]?
**A.** The ED50 was 219 µM.

**Q.** What about the ED50 [19] of the same molecule?
**A.** Its ED50 is 8.81 µM.

**Q.** And the ED50 [20]?
**A.** The ED50 was 10.2 µM.

**Q.** What about the ED50 [21] of the same molecule?
**A.** The ED50 was 0.1 µM.

**Q.** What about the ED50 [22] of the same molecule?
**A.** Its ED50 is 5.04 µM.

**Q.** What about the ED50 [23] of the same molecule?
**A.** The ED50 was 1.14 µM.

**Q.** And the ED50 [24]?
**A.** Its ED50 is 13.5 µM.

**Q.** What about the IC50 (Ephrin type-B receptor 4) of the same molecule?
**A.** Its IC50 is 0.003 µM.

**Q.** And the ED50 [25]?
**A.** The ED50 was 2.16 µM.

**Q.** What about the ED50 [26] of the same molecule?
**A.** Its ED50 is 11.9 µM.

**Q.** What about the ED50 [27] of the same molecule?
**A.** The ED50 was 4.18 µM.

**Q.** What about the ED50 [28] of the same molecule?
**A.** Its ED50 is 0.0377 µM.

**Q.** What about the ED50 [29] of the same molecule?
**A.** Its ED50 is 0.00564 µM.

**Q.** And the ED50 [30]?
**A.** The ED50 was 3.14 µM.

**Q.** What about the ED50 [31] of the same molecule?
**A.** Its ED50 is 4.77 µM.

**Q.** What about the ED50 [32] of the same molecule?
**A.** The ED50 was 0.0167 µM.

**Q.** What about the ED50 [33] of the same molecule?
**A.** The ED50 was 15.5 µM.

**Q.** And the ED50 [34]?
**A.** Its ED50 is 0.11 µM.

**Q.** And the ED50 [35]?
**A.** Its ED50 is 1.14 µM.

**Q.** And the ED50 (Homo sapiens [36])?
**A.** The ED50 was 0.0636 µM.

**Q.** What about the ED50 [37] of the same molecule?
**A.** Its ED50 is 4.39 µM.

**Q.** What about the ED50 [38] of the same molecule?
**A.** The ED50 was 5.17 µM.

**Q.** And the ED50 [39]?
**A.** The ED50 was 13.1 µM.

**Q.** And the ED50 [40]?
**A.** Its ED50 is 7.65 µM.

**Q.** And the ED50 [41]?
**A.** The ED50 was 4.55 µM.

**Q.** What about the ED50 [42] of the same molecule?
**A.** Its ED50 is 0.542 µM.

**Q.** And the ED50 [43]?
**A.** Its ED50 is 5.03 µM.

**Q.** And the ED50 [44]?
**A.** Its ED50 is 13 µM.

**Q.** And the ED50 [45]?
**A.** Its ED50 is 0.882 µM.

**Q.** Which ED50 [1] does the source give for `Cc1ccc(C(=O)Nc2cccc(C(F)(F)F)c2)cc1Nc1nc(-c2cccnc2)nc2nn(C)cc12` here?
**A.** The ED50 was 0.598 µM.

**Q.** And the ED50 [2]?
**A.** Its ED50 is 4.32 µM.

**Q.** And the ED50 [3]?
**A.** The ED50 was 0.137 µM.

**Q.** And the ED50 [4]?
**A.** Its ED50 is 0.0425 µM.

**Q.** And the ED50 [5]?
**A.** Its ED50 is 3.43 µM.

**Q.** And the ED50 [6]?
**A.** Its ED50 is 0.000949 µM.

**Q.** And the ED50 (Homo sapiens [7])?
**A.** Its ED50 is 0.0194 µM.

**Q.** What about the ED50 [8] of the same molecule?
**A.** The ED50 was 0.0418 µM.

**Q.** And the ED50 [9]?
**A.** Its ED50 is 0.0561 µM.

**Q.** What about the ED50 [10] of the same molecule?
**A.** The ED50 was 0.0233 µM.

**Q.** What about the ED50 [11] of the same molecule?
**A.** The ED50 was 4.59 µM.

**Q.** And the ED50 [12]?
**A.** Its ED50 is 0.00291 µM.

**Q.** And the ED50 [13]?
**A.** Its ED50 is 0.202 µM.

**Q.** What about the ED50 [14] of the same molecule?
**A.** The ED50 was 4.56 µM.

**Q.** And the ED50 [15]?
**A.** The ED50 was 0.000624 µM.

**Q.** And the ED50 [16]?
**A.** Its ED50 is 20.6 µM.

**Q.** What about the ED50 [17] of the same molecule?
**A.** Its ED50 is 2.45 µM.

**Q.** What about the ED50 [18] of the same molecule?
**A.** Its ED50 is 131 µM.

**Q.** What about the ED50 [19] of the same molecule?
**A.** The ED50 was 24.7 µM.

**Q.** And the ED50 [20]?
**A.** Its ED50 is 0.00173 µM.

**Q.** What about the ED50 [21] of the same molecule?
**A.** Its ED50 is 7.34 µM.

**Q.** What about the ED50 [22] of the same molecule?
**A.** Its ED50 is 0.0539 µM.

**Q.** And the ED50 [23]?
**A.** Its ED50 is 97 µM.

**Q.** What about the ED50 [24] of the same molecule?
**A.** Its ED50 is 70.3 µM.

**Q.** What about the IC50 (Ephrin type-B receptor 4) of the same molecule?
**A.** The IC50 was 1.66 µM.

**Q.** What about the ED50 [25] of the same molecule?
**A.** The ED50 was 8.67 µM.

**Q.** And the ED50 [26]?
**A.** Its ED50 is 0.00526 µM.

**Q.** And the ED50 [27]?
**A.** Its ED50 is 4.91 µM.

**Q.** And the ED50 [28]?
**A.** Its ED50 is 72.9 µM.

**Q.** And the ED50 [29]?
**A.** Its ED50 is 9.37 µM.

**Q.** What about the ED50 [30] of the same molecule?
**A.** Its ED50 is 0.0301 µM.

**Q.** And the ED50 [31]?
**A.** The ED50 was 0.002 µM.

**Q.** What about the ED50 [32] of the same molecule?
**A.** The ED50 was 12.3 µM.

**Q.** What about the ED50 [33] of the same molecule?
**A.** Its ED50 is 0.287 µM.

**Q.** And the ED50 [34]?
**A.** The ED50 was 0.213 µM.

**Q.** What about the ED50 [35] of the same molecule?
**A.** The ED50 was 0.0163 µM.

**Q.** What about the ED50 (Homo sapiens [36]) of the same molecule?
**A.** The ED50 was 233 µM.

**Q.** What about the ED50 [37] of the same molecule?
**A.** The ED50 was 0.0174 µM.

**Q.** And the ED50 [38]?
**A.** The ED50 was 13.4 µM.

**Q.** What about the ED50 [39] of the same molecule?
**A.** The ED50 was 4 µM.

**Q.** What about the ED50 [40] of the same molecule?
**A.** The ED50 was 0.47 µM.

**Q.** What about the ED50 [41] of the same molecule?
**A.** The ED50 was 36500 µM.

**Q.** And the ED50 [42]?
**A.** Its ED50 is 0.387 µM.

**Q.** And the ED50 [43]?
**A.** The ED50 was 2.39 µM.

**Q.** What about the ED50 [44] of the same molecule?
**A.** Its ED50 is 0.053 µM.

**Q.** And the ED50 [45]?
**A.** The ED50 was 2.31 µM.
